In article PMC9481636, “Mechanism of action of non-camptothecin inhibitor Genz-644282 in topoisomerase I inhibition” (Communications Biology, 2022):
Changes are numbered by the printed parent chain.

Assays:
Assay type in all cases: biochemical
Topoisomerase I (TOP1) [1] = molecular target: T1, Topoisomerase I (TOP1) (Homo sapiens, UniProt P11387, N722S); assay: nicked-DNA accumulation assay with purified recombinant TOP1 N722S, […] Genz
T1 construct: 6×His-tagged TOP1 (baculovirus, High Five cells)
T1 sequence (P11387 2-765 N722S): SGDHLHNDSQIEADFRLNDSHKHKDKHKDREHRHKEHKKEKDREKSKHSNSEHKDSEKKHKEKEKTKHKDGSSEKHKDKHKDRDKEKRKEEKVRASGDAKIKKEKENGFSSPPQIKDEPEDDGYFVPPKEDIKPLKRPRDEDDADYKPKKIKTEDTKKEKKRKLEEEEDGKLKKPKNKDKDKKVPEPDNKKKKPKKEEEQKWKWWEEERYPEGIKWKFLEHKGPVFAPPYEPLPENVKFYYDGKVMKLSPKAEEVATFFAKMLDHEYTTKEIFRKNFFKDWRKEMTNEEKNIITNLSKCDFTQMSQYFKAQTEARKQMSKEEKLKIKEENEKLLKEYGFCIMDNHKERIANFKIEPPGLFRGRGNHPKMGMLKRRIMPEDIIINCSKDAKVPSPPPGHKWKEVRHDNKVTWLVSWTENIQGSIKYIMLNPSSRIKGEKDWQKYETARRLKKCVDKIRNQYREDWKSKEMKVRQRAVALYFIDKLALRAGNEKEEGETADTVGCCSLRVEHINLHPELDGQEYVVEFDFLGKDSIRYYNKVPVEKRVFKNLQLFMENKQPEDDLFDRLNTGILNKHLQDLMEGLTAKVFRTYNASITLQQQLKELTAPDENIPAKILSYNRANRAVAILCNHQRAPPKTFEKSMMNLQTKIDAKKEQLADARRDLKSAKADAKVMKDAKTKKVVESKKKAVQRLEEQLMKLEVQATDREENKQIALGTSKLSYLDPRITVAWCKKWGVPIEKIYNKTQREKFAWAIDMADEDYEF

Topoisomerase I (TOP1) [2] = molecular target: T2, Topoisomerase I (TOP1) (Homo sapiens, UniProt P11387); assay: nicked-DNA accumulation/relaxation assay with purified recombinant wild-type TOP1
T2 construct: 6×His-tagged TOP1 (baculovirus, High Five cells)
T2 sequence (P11387 2-765): T1 sequence (P11387 2-765 N722S) with S721N

Topoisomerase I (TOP1) [3] = molecular target: T3, Topoisomerase I (TOP1) (Homo sapiens, UniProt P11387, N722A); assay: nicked-DNA accumulation/relaxation assay with purified recombinant TOP1 N722A
T3 construct: 6×His-tagged TOP1 (baculovirus, High Five cells)
T3 sequence (P11387 2-765 N722A): T1 sequence (P11387 2-765 N722S) with S721A

CNCCn1c(=O)c2cc(OC)c(OC)cc2c2cnc3cc4c(cc3c21)OCO4 [Genz, 8,9-dimethoxy-5-(2-N-methylaminoethyl)-2,3-methylenedioxy-5H-dibenzo[c,h][1,6]naphthyridin-6-one]
nicked-DNA accumulation assay with purified recombinant TOP1 N722S, 10 μM Genz (Topoisomerase I (TOP1) [1]): The enhanced accumulation of nicked DNA appeared only in the N722S mutant after treatment with Genz
nicked-DNA accumulation/relaxation assay with purified recombinant wild-type TOP (Topoisomerase I (TOP1) [2]): slight accumulation of nicked DNA was also observed for the wild type
nicked-DNA accumulation/relaxation assay with purified recombinant TOP1 N722A (Topoisomerase I (TOP1) [3]): accumulation of nicked DNA on N722A and N722S proteins after treatment with Genz was higher than that on the wild type
